Results reported in patent US9131719B2, “Use of certain neoflavonoids for intensifying and/or producing a sensory impression of sweetness” (SYMRISE AG, priority 2011, dated 2015).

Legend:
Assay type in all cases: in vivo
[1] = test system: impression of sweetness of a 5 wt % sucrose solution; test: Intensification of the impression of sweetness of a sugar solution, assessed by a panel of experts; conditions: for % intensification of the impression of sweetness: calculated from mean values with vs without test substance; for Impression of sweetness (1-10) with: scale 1 [not sweet] to 10 [extremely sweet]; for sweetness intensifying action (in words): residue at position C5 instead of C7, compared with compounds to be used according to the invention
Method: For quantifying the intensification of the impression of sweetness, the sweetness of a 5 wt % sucrose solution (consisting of 5 wt % sucrose in water) and of a sample that consisted of water, 5 wt % sucrose and a specified amount (i.e. that given below in each case) of test substance was determined by a panel of experts. The assessment was based on a scale from 1 [not sweet] to 10 [extremely sweet]. The intensification of the impression of sweetness (in %) was calculated from the respective mean values of the assessments of the sucrose solution and of the respective sample to be investigated containing the test substance. The test substances used were in each case a racemic mixture of the following compounds to be used according to the invention. […]

[2] = test system: bitterness of a solution containing 100 ppm naringin; test: Reduction of bitterness of a solution of bitter substance (naringin), assessed by a panel of experts; conditions: 25 ppm test substance
Excerpt: (§1) To quantify the reduction (i.e. the masking or decrease) of the impression of bitterness in a sample, the bitterness of a solution containing 500 ppm caffeine or 100 ppm naringin was compared by a panel of experts, in each case against a sample that contained 500 ppm caffeine or 100 ppm naringin and additionally the amount stated in each case of a substance to be assessed (with respect to capacity for reducing bitterness) (assessment scale: 1 [not bitter] through 10 [extremely bitter]). Evaluation, i.e. calculation of the reduction (in %) of the impression of bitterness, was based in each case on the mean values of the assessment of the panel of experts.

[3] = test system: bitterness of a solution containing 500 ppm caffeine; test: Reduction of bitterness of a solution of bitter substance (caffeine), assessed by a panel of experts; conditions: 50 ppm test substance
Excerpt: as §1

[4] = 50 ppm test substance in 5 wt % sucrose solution
[5] = 50 ppm test substance in water with 5 wt % sucrose
[6] = scale 1 [not bitter] through 10 [extremely bitter]

Row | Compound | % intensification of the impression of sweetness [1, 4] | Impression of sweetness (1-10) with [1, 5] | also measured
1 | CCCOc1ccc2c(c1)OC(=O)C[C@H]2c1ccc(O)cc1 [(11) + (12), (4S)-4-(4-Hydroxyphenyl)-7-propoxy-chroman-2-one (11) and (4R)-4-(4-hydroxyphenyl)-7-propoxy-chroman-2-one (12)] | – | – | % intensification of the impression of sweetness ([1]; 25 ppm test substance in 5 wt % sucrose solution): 14% (p < 0.09); Impression of sweetness (1-10) with ([1]; 25 ppm test substance in water with 5 wt % sucrose): 6.6 ± 1.5
2 | COc1cc(OC)c2c(c1)OC(=O)C[C@H]2c1ccc(O)c(OC)c1 [(17) + (18), (4S)-4-(4-Hydroxy-3-methoxyphenyl)-5,7-dimethoxy-chroman-2-one (17) and (4R)-4-(4-hydroxy-3-methoxyphenyl)-5,7-dimethoxy-chroman-2-one (18)] | 37% (p < 0.002) | 7.1 ± 1.8 | % reduction of the impression of bitterness ([2]; calculated from mean values): 9.9%; Impression of bitterness (1-10) with [2, 6]: 4.8 ± 2.5
3 | COc1cc(O)c2c(c1)OC(=O)C[C@H]2c1ccc(O)c(OC)c1 [(23) + (24), (4S)-5-Hydroxy-4-(4-hydroxy-3-methoxyphenyl)-7-methoxy-chroman-2-one (23) and (4R)-5-hydroxy-4-(4-hydroxy-3-methoxyphenyl)-7-methoxy-chroman-2-one (24)] | 47% | 7.6 ± 1.5 | –
4 | COc1cc([C@@H]2CC(=O)Oc3cc(O)cc(OC)c32)ccc1O [(A) + (B), (4S)-7-Hydroxy-4-(4-hydroxy-3-methoxyphenyl)-5-methoxy-chroman-2-one (A) and (4R)-7-hydroxy-4-(4-hydroxy-3-methoxyphenyl)-5-methoxy-chroman-2-one (B)] | 8% (p < 0.5) | 5.8 ± 1.4 | –
5 | COc1cc([C@@H]2CC(=O)Oc3cc(O)cc(OC)c32)ccc1O [(A), (4S)-7-Hydroxy-4-(4-hydroxy-3-methoxyphenyl)-5-methoxy-chroman-2-one] | – | – | sweetness intensifying action (in words) [1]: much lower sweetness intensifying action
6 | COc1cc([C@H]2CC(=O)Oc3cc(O)cc(OC)c32)ccc1O [(B), (4R)-7-hydroxy-4-(4-hydroxy-3-methoxyphenyl)-5-methoxy-chroman-2-one] | – | – | sweetness intensifying action (in words) [1]: much lower sweetness intensifying action
7 | (4S)-4-(4-Hydroxyphenyl)-7-methoxy-chroman-2-one (19) and (4R)-4-(4-hydroxyphenyl)-7-methoxy-chroman-2-one (20) [(19) + (20)] | 14% (p < 0.09) | 5.4 ± 1.1 | % reduction of the impression of bitterness ([3]; calculated from mean values): 9.9%; Impression of bitterness (1-10) with [3, 6]: 3.6 ± 1.5
8 | (4S)-7-Methoxy-4-(4-methoxyphenyl)chroman-2-one (1) and (4R)-7-methoxy-4-(4-methoxyphenyl)chroman-2-one (2) [(1) + (2)] | 12% (p < 0.08) | 5.4 ± 0.9 | –
